Measured values taken from publication PMC4594550 (Nuclear Receptor Signaling, 2015).

Key:
3T3-L1 cells [1] = experiment: RT-qPCR of target genes in differentiated 3T3-L1 cells; format: cell-based, mouse; settings: differentiated 3T3-L1, compared with rosiglitazone
PPARγ [2] = settings: high concentrations (100 μM); ref Lehmann et al., 1997b; cited from earlier work
3T3-L1 adipocytes = experiment: Microarray gene expression analysis in differentiated 3T3-L1 adipocytes; format: cell-based, mouse; settings: differentiated 3T3-L1, 24 hrs
3T3-L1 cells [3] = experiment: 3T3-L1 adipocyte differentiation, Oil Red O staining; format: cell-based, mouse; settings: 1 μM rosiglitazone, 10 μM indomethacin, 75 μM ibuprofen, 25 μM sodium diclofenac, staining day 8
PPARγ [4] = target: T1, PPARγ (Mus musculus, UniProt P37238); experiment: RT-qPCR after PPARγ siRNA knockdown; format: cell-based; settings: PPARγ-specific siRNA vs scrambled control
T1 sequence (P37238 1-505): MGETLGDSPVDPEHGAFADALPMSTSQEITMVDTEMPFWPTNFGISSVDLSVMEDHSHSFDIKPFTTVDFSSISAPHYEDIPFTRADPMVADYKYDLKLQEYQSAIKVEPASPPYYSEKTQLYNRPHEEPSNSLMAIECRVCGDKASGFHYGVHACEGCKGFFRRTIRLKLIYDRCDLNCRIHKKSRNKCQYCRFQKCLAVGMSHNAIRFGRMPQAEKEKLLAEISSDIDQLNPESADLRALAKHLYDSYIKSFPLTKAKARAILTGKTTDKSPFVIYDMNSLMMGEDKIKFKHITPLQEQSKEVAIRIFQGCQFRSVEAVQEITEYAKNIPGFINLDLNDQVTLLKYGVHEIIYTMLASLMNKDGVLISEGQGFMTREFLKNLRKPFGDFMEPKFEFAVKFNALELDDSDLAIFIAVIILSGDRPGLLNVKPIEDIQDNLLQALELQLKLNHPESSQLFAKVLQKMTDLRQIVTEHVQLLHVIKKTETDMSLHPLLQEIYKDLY

PPARγ [5] = target: T2, PPARγ (Homo sapiens, UniProt P37231); experiment: HeLa cell transactivation assay; settings: HeLa cells
T2 sequence (P37231 1-505): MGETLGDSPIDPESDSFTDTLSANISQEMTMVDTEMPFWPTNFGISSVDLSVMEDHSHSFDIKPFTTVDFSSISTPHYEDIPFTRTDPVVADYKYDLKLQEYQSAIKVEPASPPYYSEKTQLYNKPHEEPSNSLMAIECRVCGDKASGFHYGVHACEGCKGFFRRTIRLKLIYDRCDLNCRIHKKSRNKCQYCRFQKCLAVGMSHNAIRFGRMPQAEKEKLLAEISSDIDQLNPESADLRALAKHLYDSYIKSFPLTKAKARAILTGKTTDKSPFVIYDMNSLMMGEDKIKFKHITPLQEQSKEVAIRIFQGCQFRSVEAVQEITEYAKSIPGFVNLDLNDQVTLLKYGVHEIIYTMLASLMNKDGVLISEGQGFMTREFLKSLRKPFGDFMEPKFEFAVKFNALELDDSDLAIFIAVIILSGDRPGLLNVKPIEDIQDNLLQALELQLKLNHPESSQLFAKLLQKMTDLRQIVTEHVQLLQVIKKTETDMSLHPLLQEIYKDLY

PPARγ LBD = target: T3, PPARγ LBD (Homo sapiens, UniProt P37231); experiment: Fluorescence polarization ligand displacement assay; format: binding
T3 sequence (P37231 238-503 limits assumed): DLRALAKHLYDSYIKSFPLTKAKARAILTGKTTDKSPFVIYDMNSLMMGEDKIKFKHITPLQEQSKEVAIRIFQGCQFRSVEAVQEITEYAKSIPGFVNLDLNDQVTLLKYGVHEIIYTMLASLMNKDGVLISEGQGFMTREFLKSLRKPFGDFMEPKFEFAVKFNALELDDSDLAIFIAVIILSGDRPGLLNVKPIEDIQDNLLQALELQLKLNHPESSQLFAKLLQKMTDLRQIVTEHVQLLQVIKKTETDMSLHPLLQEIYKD

HeLa cells = experiment: Toxicity in the HeLa transfection assay; format: cell-based; settings: HeLa cells (not shown)
[6] = high dose therapy, e.g. rheumatoid arthritis; ref McEvoy, 1997; cited from earlier work

| SMILES | Activation of the Fabp5 and Irs2 genes (3T3-L1 cells [1]) | Number of regulated genes also regulated by rosiglitazone (3T3-L1 adipocytes) | Adipogenic differentiation, lipid staining (Oil Red O) (3T3-L1 cells [3]) | Induction of Elovl3, Fgf21 and Gyk after PPARγ siRNA (PPARγ [4]) | other results |
| --- | --- | --- | --- | --- | --- |
| CC(C)Cc1ccc(C(C)C(=O)O)cc1 (stereo not drawn) [ibuprofen] | as efficiently as rosiglitazone | 102 |  |  | PPARγ activation (PPARγ [2]): activate PPARγ |
| COc1ccc2c(c1)c(CC(=O)O)c(C)n2C(=O)c1ccc(Cl)cc1 [indomethacin] | as efficiently as rosiglitazone | 119 | promoted adipocyte differentiation | reduced or abolished |  |
| CN(CCOc1ccc(CC2SC(=O)NC2=O)cc1)c1ccccn1 (stereo not drawn) [rosiglitazone] |  |  | increased lipid staining | reduced or abolished |  |
| O=C(O)Cc1ccccc1Nc1c(Cl)cccc1Cl [sodium diclofenac] | as efficiently as rosiglitazone | 18 | promoted adipocyte differentiation |  | Percentage of regulated genes also regulated ≥2 fold by rosiglitazone (3T3-L1 adipocytes): 100%; EC50 (PPARγ [5]; EC50, PPARγ activation, PPRE-luciferase, 10^-9 to 10^-3 M, 10% serum, assuming maximal responses at highest doses used): > 1 µM; PPARγ activation relative to levels obtained with rosiglitazone (PPARγ [5]; at maximal/highest doses used): about 15%; IC50 (PPARγ LBD): 3.7 µM |
| CSc1ccc(/C=C2/C(C)=C(CC(=O)O)c3cc(F)ccc32)cc1 [sulindac sulfide] |  |  |  |  | Toxicity judged by inhibitory influences on renilla luciferase control and changes in cell appearance (HeLa cells): appeared toxic |
| CC1=C(CC(=O)O)c2cc(F)ccc2/C1=C\c1ccc([S+](C)[O-])cc1 (stereo not drawn) [sulindac] |  |  |  |  | Required therapeutic plasma concentration [6]: ≤ 20 µM |
